System: hepatic fibrosis
Experiment: Dimethylnitrosamine (DMN)-induced hepatic fibrosis, hydroxyproline (Hyp) in the liver
Type: in vivo
Conditions: SD male rat, DMN 10 mg/kg i.p. three times a week for four weeks, diet containing 0.5% L-cysteine vs 0.5% casein, 28th day
Description: Hepatic fibrosis was induced by intraperitoneally administering 10 mg/kg of dimethylnitrosamine (DMN) to a 6-week SD male rat three times a week for four weeks. Then, an experimental diet containing 0.5% of L-cysteine (Cys) as a subject and that containing 0.5% of casein as a control were fed from the initiation date of the DMN administration. On the 28th day from the initiation of the […] administration, the liver was sampled from the subject and the amount of hydroxyproline (Hyp) in the liver was measured as an index of hepatic fibrosis using an amino acid analyzer.

N[C@@H](CS)C(=O)O [cysteine, L-cysteine]
increase in Hyp in the liver (index of hepatic fibrosis): significantly suppressed

— US20040161786A1, “Gene panel participative in hepatic stellate cell activation” (priority 2001, published 2004)
